{"source": "patent US8785416B2", "about": "“Sulphated disaccharides for the treatment of neurodegenerative and/or neurovascular diseases” (Bioiberica, S.A., priority 2009, dated 2014)", "key": {"rat hippocampal slices": {"tested_on": "rat hippocampal slices", "assay": "Oxygen and glucose deprivation (15 minutes OGD, 2 hours reoxygenation) in hippocampal slices, MTT cell viability", "assay_type": "cell-based", "protocol": "Male Spague Dawley strain rats (250-325 g) were used. After anaesthesia by means of an intraperitoneal injection of 60 mg/Kg sodium pentobarbital (Euta-Lender®), they were decapitated with a guillotine and the brain was extracted after a craniotomy. The brain was immediately submersed in a dissection solution, a cold (4° C.) modified Krebs-Henseleit solution at pH 7.4, the composition of which is: 120 mM NaCl, 2 mM KCl, 0.5 mM CaCl2, 26 mM NaHCO3, 10 mM MgSO4, 1.18 mM KH2PO4, 11 mM glucose and 200 mM sucrose, bubbled with 95% O2-5% CO2. The hippocampi were isolated, embedded in 2% low melting point agarose (Sigma-Aldrich), and cut into 350 μm transverse slices in a vibratome (Leica VT1000S).\nAfter the cutting in the vibratome, the slices were transferred to a vial with sucrose-free dissection Krebs solution, bubbled with 95% O2-5% CO2 for 60 minutes (equilibrium period).\nAfter the equilibrating period, the medium was removed and an oxygenated solution (normal Krebs solution (120 mM NaCl, 2 mM KCl, 2 mM CaCl2, 26 mM NaHCO3, 1.19 mM MgSO4, 1.18 mM KH2PO4 and 11 mM glucose), bubbled with 5% CO2 and 95% O2 for 30 minutes (preincubation period), was introduced. The baseline slices were maintained in this oxygenated solution throughout the entire experiment. To induce OGD, the oxygenated solution was replaced with another one which lacked glucose and was bubbled with a mixture of gases of 5% CO2 and 95% N2 (anoxic solution). The slices were in a bath at 37° C. After inducing OGD, the anoxic medium was replaced with another one which contained the oxygenated solution (reoxygenation period).\nTo evaluate the effect of the compounds, they were incubated for the 30 minutes of the preincubation and throughout the OGD and during the reoxygenation. Two OGD-reoxygenation protocols were used: (i) 1 hour of OGD and 2 hours of reoxygenation and (ii) 15 minutes of OGD followed by 2 hours of reoxygenation.\nWhen the OGD-reoxygenation protocol (ii): 15 minutes of OGD followed by 2 hours of reoxygenation was used, the slices were incubated with increasing concentrations of compound Ic (0.3 and 1 μM) or with increasing concentrations of compound Ib (1 and 3 μM). In the same study these two compounds of the invention were compared with N-acetylcysteine (NAC) at 10 mM. The baseline (slices in the absence of compound Ic or Ib and of OGD) and the control (slices in the absence of compound Ic or Ib and with OGD) were also included.\nFor the protocol of 15 minutes of OGD followed by 2 hours of reoxygenation, the cell viability was evaluated by means of the tetrazolium salt MTT, which is internalized in those cells which are viable and are therefore capable of reducing the tetrazolium to formazan which is an insoluble and coloured product which is deposited in the […]. To that end, after the experiment had ended, the hippocampal slices were incubated with MTT at a final concentration of 0.5 mg/mL in a Krebs-HEPES solution (in mM: NaCl, 144; KCl, 5.9; MgCl2, 1.2; CaCl2, 2; HEPES, 10; glucose, 11; at pH 7.3) at 37° C. After 3 hours, the medium was removed and the formazan precipitated in the solution was dissolved in dimethylsulfoxide. Then, the absorbance was measured in a plate reader (Labsystems iEMS Reader MF), at 500 nm. The data were represented taking the result of the baseline slices, i.e., those not subjected to OGD, as 100% viability."}, "[1]": {"tested_on": "SH-SY5Y human neuroblastoma cells", "assay": "Neuroprotection against cell death induced by rotenone plus oligomycin-A (oxidative stress), LDH release", "assay_type": "cell-based", "protocol": "An oxidative stress model consists of blocking mitochondrial respiratory chain complexes I and V by means of the combination of rotenone plus oligomycin-A, respectively. As a result of the interruption of the mitochondrial respiratory chain, the cell is unable to continue producing ATP, and the free radicals are generated exceeding the capacity of the cell to neutralize them, and as a result, cell death occurs.\nSH-SY5Y human neuroblastoma cells were cultured in a monolayer in 75 cm^2 flasks with a vented stopper. The culture medium used was Dulbecco's Modified Eagle's Medium (DMEM) with a high glucose content ([…]) and supplemented with 10% foetal bovine serum, 2 mM L-Glutamine, 50 IU/mL penicillin and 50 μg/mL streptomycin.\nThe cell cultures were maintained in an incubator at 37° C. in a humid environment, with 5% CO2 and 95% air. The culture medium was changed twice a week, performing 1:4 passages when the cells reached 70-80% confluence. To perform the passages, the cells were detached by means of their treatment with trypsin-EDTA.\nFor the cell viability assays, the cells were seeded in sterile 48-well plates at a density of 80,000 cells/well. The experiments were performed 24-48 hours after their seeding.\nTo evaluate the neuroprotective effect of the compounds, the SH-SY5Y cells were preincubated for 24 hours with the compound under study, and subsequently incubated for 24 hours with the compound under study in the presence of the toxic substances (a combination of 10 μM rotenone and 1 μM oligomycin-A); at the end of this period the cell viability was evaluated by quantifying the release of the LDH enzyme.\nThe assessment of this enzyme was performed by means of a commercial kit (Cytotoxicity detection kit-LDH; Roche) following the instructions of the company. The samples were colorimetrically analyzed in a plate reader (Labsystems iEMS Reader MF), using the suitable filter at 490-600 nm and obtaining the absorbance values.\nThe % of cell death was defined as the % of LDH released into the extracellular medium with respect to the total (sum of intra- and extracellular LDH).\nCompounds Ic and Ib were studied at four concentrations (0.001, 0.003, 0.01 and 0.03 μM), chondroitin sulphate (supplied by Bioibérica, S.A.) was assayed at two concentrations (10 and 60 μM) and trolox (Sigma Aldrich) was assayed at two concentrations (30 and 300 μM). The experiment also included the baseline (SH-SY5Y cells in the absence of compound and of toxic stimulus) and the control (SH-SY5Y cells cultured in the absence of compound and in the presence of the toxic stimulus rotenone plus oligomycin)."}}}
{"substance": "methyl 2-acetamido-2-deoxy-3-O-(β-D-glucopyranosyluronic acid)-4,6-di-O-sulpho-α-D-glucopyranoside, trisodium salt [compound Ic]", "values": [{"measurement": "maximum statistically significant protection (cell viability, MTT)", "setting": "rat hippocampal slices; 1 μM, 15 minutes OGD, 2 hours reoxygenation, baseline 100%, control 67%", "value": 93, "unit": "%"}, {"measurement": "efficacy in comparison with N-acetylcysteine", "setting": "rat hippocampal slices; Ic 0.3 and 1 μM, Ib 1 and 3 μM vs N-acetylcysteine 10 mM", "value": "higher efficacy"}, {"measurement": "maximum statistically significant protection against cell death (% of released LDH) induced by rotenone and oligomycin", "setting": "[1]; 0.03 μM, 24 h preincubation + 24 h with 10 μM rotenone and 1 μM oligomycin-A", "value": 47, "unit": "%"}, {"measurement": "protective effect compared with chondroitin sulphate and trolox", "setting": "[1]; Ic, Ib at 0.001-0.03 μM vs chondroitin sulphate 10 and 60 μM, trolox 30 and 300 μM", "value": "more effective than chondroitin sulphate and than trolox"}]}
